# Results from article PMC4008261, “Rewiring of regenerated axons by combining treadmill training with semaphorin3A inhibition” (Molecular Brain, 2014).
# Assays:
# SCT adult rats [1] = assay: Angiogenesis after SCT (RECA-1 immunostaining); format: in vivo, rat; details: for total immunostained area of vessels with lumen diameters larger than 20 μm versus control: 3 mm and 1 mm rostral/caudal to the lesion epicenter
# Method: (§1) Rats were randomly divided into the following three experimental groups: 1) untrained + placebo, 2) untrained + SM-345431 and 3) trained + SM-345431. SCT was performed, and SM-345431 or placebo was administered at the lesion site via the newly developed DDS, which is described in detail below. Starting 1 week post-injury, treadmill training commenced with a BSS. Kinematic tests were performed monthly for 3 months after SCT using a rodent robotic device (Rodent robot 3000, Robomedica Inc.) that primarily assessed the performance of plantar stepping on a treadmill. Treadmill training was continued throughout the experimental period.
# A total of 53 adult female Sprague-Dawley rats (200-250 g, 10-12 weeks old) were used in this study (3 rats died during the experimental period and were excluded from the statistical analysis). All procedures were approved by the experimental animal care committee of Keio University, School of Medicine and Murayama Medical Center (approval #12-8). All rats were anesthetized with an intraperitoneal injection of ketamine (100 mg/kg)/xylazine (10 mg/kg). The spinal cord at the level of the T10 lamina was exposed by T10 laminectomy, and the dorsal dura mater was opened. The exposed spinal cord was cut along the inner edge of the vertebra with a sharp micro-scissor. Two more cuts were made at the gap of the transected spinal cord by a scalpel to ensure total transection. SM-345431 or placebo was administered to the transected site via the newly developed DDS as described in detail below (Figure 1G-I). After these procedures, the back muscles and skin were closed. Rats were kept warm in an incubator (37°C) after surgery. To prevent dehydration in the rats, 10 ml of saline was subcutaneously injected daily until day 7. Ampicillin (0.4 g/kg) was also injected intramuscularly daily to prevent infection until day 7. The bladder was evacuated manually until autonomous emptying of the bladder was achieved. […] Kinematic data were recorded using similar procedures prior to re-transection surgery (on the same day) and on the day following re-transection surgery. […]
# SCT adult rats [2] = assay: Kinematic analysis before and after re-transection; format: in vivo, rat
# Method: A total of 53 adult female Sprague-Dawley rats (200-250 g, 10-12 weeks old) were used in this study (3 rats died during the experimental period and were excluded from the statistical analysis). All procedures were approved by the experimental animal care committee of Keio University, School of Medicine and Murayama Medical Center (approval #12-8). All rats were anesthetized with an intraperitoneal injection of ketamine (100 mg/kg)/xylazine (10 mg/kg). The spinal cord at the level of the T10 lamina was exposed by T10 laminectomy, and the dorsal dura mater was opened. The exposed spinal cord was cut along the inner edge of the vertebra with a sharp micro-scissor. […] Kinematic data were recorded using similar procedures prior to re-transection surgery (on the same day) and on the day following re-transection surgery. […]
# To evaluate the locomotor capability of SCT rats in detail, the aforementioned robotic device was employed. Each robotic arm tracked the two-dimensional movement of the ankle, and the trajectory of the ankle movement was then recorded on a computer for kinematic analyses. […] Briefly, the ankle trajectory in each plane was recorded by the robotic arm and a computer. […] All kinematic characteristics were obtained when TO and PC were identified; as a result, parameters such as the duration phase, the swing phase of the step cycle and the length and height of the step were calculated. […]
# SCT adult rats [3] = assay: Lumbar spinal circuitry after SCT (c-Fos and synapsin-1 immunostaining); format: in vivo, rat
# Method: as §1
# A total of 53 adult female Sprague-Dawley rats (200-250 g, 10-12 weeks old) were used in this study (3 rats died during the experimental period and were excluded from the statistical analysis). All procedures were approved by the experimental animal care committee of Keio University, School of Medicine and Murayama Medical Center (approval #12-8). All rats were anesthetized with an intraperitoneal injection of ketamine (100 mg/kg)/xylazine (10 mg/kg). The spinal cord at the level of the T10 lamina was exposed by T10 laminectomy, and the dorsal dura mater was opened. The exposed spinal cord was cut along the inner edge of the vertebra with a sharp micro-scissor. Two more cuts were made at the gap of the transected spinal cord by a scalpel to ensure total transection. SM-345431 or placebo was administered to the transected site via the newly developed DDS as described in detail below (Figure 1G-I). After these procedures, the back muscles and skin were closed. Rats were kept warm in an incubator (37°C) after surgery. To prevent dehydration in the rats, 10 ml of saline was subcutaneously injected daily until day 7. Ampicillin (0.4 g/kg) was also injected intramuscularly daily to prevent infection until day 7. The bladder was evacuated manually until autonomous emptying of the bladder was achieved. The re-transection procedure was performed at the same level as the primary SCT (15 rats total; 5 rats from each group). Kinematic data were recorded using similar procedures prior to re-transection surgery (on the same day) and on the day following re-transection surgery. For CST tracing, 10% BDA was injected as follows. Nine weeks after SM-345431 or placebo administration, BDA (10000 MW, Molecular Probes) was injected into six different sites of the sensorimotor cortices of the rats under general anesthesia (site 1: 2.0 mm lateral, 0 mm to bregma; site 2: 2.0 mm lateral, 2 mm posterior to bregma; site 3: 2.0 mm lateral, 4 mm posterior to bregma; site 4: 4 mm lateral, 0 mm to bregma; site 5: 4 mm lateral, 2 mm posterior to bregma and site 6: 4 mm lateral, 4 mm posterior to bregma). […]
# SCT adult rats [4] = assay: Axonal regeneration after SCT (GAP43, 5-HT/GFAP immunostaining, BDA tracing); format: in vivo, rat; details: for number of GAP43 axons versus control: especially 1 mm caudal to the injury epicenter
# Method: as §1
# A total of 53 adult female Sprague-Dawley rats (200-250 g, 10-12 weeks old) were used in this study (3 rats died during the experimental period and were excluded from the statistical analysis). All procedures were approved by the experimental animal care committee of Keio University, School of Medicine and Murayama Medical Center (approval #12-8). All rats were anesthetized with an intraperitoneal injection of ketamine (100 mg/kg)/xylazine (10 mg/kg). The spinal cord at the level of the T10 lamina was exposed by T10 laminectomy, and the dorsal dura mater was opened. The exposed spinal cord was cut along the inner edge of the vertebra with a sharp micro-scissor. Two more cuts were made at the gap of the transected spinal cord by a scalpel to ensure total transection. SM-345431 or placebo was administered to the transected site via the newly developed DDS as described in detail below (Figure 1G-I). After these procedures, the back muscles and skin were closed. Rats were kept warm in an incubator (37°C) after surgery. To prevent dehydration in the rats, 10 ml of saline was subcutaneously injected daily until day 7. Ampicillin (0.4 g/kg) was also injected intramuscularly daily to prevent infection until day 7. The bladder was evacuated manually until autonomous emptying of the bladder was achieved. The re-transection procedure was performed at the same level as the primary SCT (15 rats total; 5 rats from each group). Kinematic data were recorded using similar procedures prior to re-transection surgery (on the same day) and on the day following re-transection surgery. For CST tracing, 10% BDA was injected as follows. Nine weeks after SM-345431 or placebo administration, BDA (10000 MW, Molecular Probes) was injected into six different sites of the sensorimotor cortices of the rats under general anesthesia (site 1: 2.0 mm lateral, 0 mm to bregma; site 2: 2.0 mm lateral, 2 mm posterior to bregma; site 3: 2.0 mm lateral, 4 mm posterior to bregma; site 4: 4 mm lateral, 0 mm to bregma; site 5: 4 mm lateral, 2 mm posterior to bregma and site 6: 4 mm lateral, 4 mm posterior to bregma). For each site, injections were performed at two different depths (1.2 mm and 1.6 mm), and 3 μl of 10% BDA was injected at a rate of 0.15 μl/min using a micro-injector. Three weeks after the BDA injection, rats were sacrificed and used for immunohistochemistry.
# A novel matrix silicone preparation was developed to allow continuous drug delivery at the site of injury. The amount of drug released from this matrix silicone preparation in vitro was measured as described in Figure 1. Matrix silicone sheets (0.3 mm thick) containing SM-345431 were trimmed into 3-mm-square pieces to fit into the opened dura. After SCT, one piece of silicone sheet was placed on the transected spinal cord gap so that it could act on the spinal cord directly.
# Twelve weeks after SCT, rats were deeply anaesthetized by an intraperitoneal injection of 14% chloral hydrate and then perfused intracardially with 4% paraformaldehyde (PFA) in 0.1 M phosphate-buffered saline (PBS). The spinal cord tissues were dissected and post-fixed in 4% PFA (24 h) and placed in 10% sucrose in 0.1 M PBS (24 h) followed by 30% sucrose in 0.1 M PBS (24 h). All the rats other than 3 rats died during the experimental period were used for the histological analysis. […]
# [5] = test system: Cell proliferation, B-Cell+LPS; assay: Pharmacological profile: cell proliferation; format: cell-based
# Description: (§2) Table 1 Pharmacological profile of SM-345431 (part 1) | column: IC50 (μm)
# [6] = test system: Cell proliferation, T-Cell+Con A; assay: Pharmacological profile: cell proliferation; format: cell-based
# Description: as §2
# [7] = SM-345431 combined with treadmill training
# [8] = SM-345431 via silicone DDS alone
smiles,measurement,setting,value
"CC(=O)c1cc2c(=O)c3c(C(=O)O)c(O)c(O)cc3oc2c(C(C)=O)c1-c1coc2cc(O)c(O)c(C(=O)O)c2c1=O [SM-345431, Vinaxanthone]",total immunostained area of vessels with lumen diameters larger than 20 μm versus control,SCT adult rats [1]; SM-345431 alone,significantly increased
same,total immunostained area of vessels with lumen diameters larger than 20 μm versus control,SCT adult rats [1]; [7],significantly increased
same,RECA-1-positive areas,"SCT adult rats [1]; SM-345431 combined with treadmill training, 3 mm caudal to the lesion epicenter, P < 0.05",significantly increased
same,step cycle area after re-transection,"SCT adult rats [2]; SM-345431 alone, re-transection 12 weeks after the initial injury",tended to be attenuated
same,step ability after re-transection,"SCT adult rats [2]; SM-345431 combined with treadmill training, average step height P < 0.01, maximum step height P < 0.05",greater attenuations of step ability were observed
same,number of c-Fos + nuclei versus control SCI rats,"SCT adult rats [3]; SM-345431 alone, L1-L5 levels, not statistically significant",tended to be lower
same,synapsin-1 expression at the lumbar enlargement versus control SCT group,"SCT adult rats [3]; SM-345431 alone, P > 0.05",No statistically significant difference
same,number of c-Fos + nuclei versus control SCT rats,"SCT adult rats [3]; SM-345431 combined with treadmill training, L4 and L5 levels, P < 0.01",statistically significant decrease
same,synapsin-1 expression at the lumbar enlargement,"SCT adult rats [3]; SM-345431 combined with treadmill training, P < 0.01 vs control SCT, P < 0.05 vs SM-345431 group",statistically significant increase
same,5-HT-positive axons penetrating the GFAP-negative scar tissue versus control,SCT adult rats [4]; [7],significantly more 5-HT-positive axons penetrated the GFAP-negative scar tissue area
same,CST axon regeneration (BDA tracing),SCT adult rats [4]; [7],no clear CST regeneration beyond the lesion epicenter was observed
same,number of GAP43 axons versus control,SCT adult rats [4]; [7],significantly increased
same,5-HT-positive axons penetrating the GFAP-negative scar tissue versus control,SCT adult rats [4]; [8],significantly more 5-HT-positive axons penetrated the GFAP-negative scar tissue area
same,CST axon regeneration (BDA tracing),SCT adult rats [4]; [8],no obvious CST regeneration beyond the lesion epicenter was observed
same,number of GAP43 axons versus control,SCT adult rats [4]; [8],significantly increased
same,IC50,[5],> 10 µM
same,IC50,[6],> 10 µM
